Row | Compound | melting point [°C]
1 | CC(C)c1ccc(-c2ncc(CSc3nnc(N)[nH]3)s2)cc1 | 168 to 170
2 | CC(C)CCNS(=O)(=O)Cc1ccc(N)cc1 | 111 to 113
3 | CC(C)C1NC(=O)c2ccccc2NC1=O (configuration not stated) | 259 to 261
4 | O=C(O)COc1ccc(S(=O)(=O)Cl)cc1F | 131 to 133
5 | O=C(O)C1CC(=O)N(c2nccs2)C1 (configuration not stated) | 184 to 186
6 | CCOC(=O)c1nc(NCc2ccccc2)sc1C | 98 to 100
7 | O=C1OCCN1c1ccc(O)cc1 | 177 to 179
8 | Cc1nc(-c2ccccc2F)sc1C(C)O (configuration not stated) | 79 to 81
9 | COc1ccc([N+](=O)[O-])cc1CN=[N+]=[N-] | 33 to 35
10 | OCCOc1ccccc1C(F)(F)F | 74 to 76
11 | Cc1cc(C)n2nc(C)c(C(=O)O)c2n1 | 226 to 228
12 | COC(=O)c1cc([N+](=O)[O-])cc([N+](=O)[O-])c1OC | 69 to 71
13 | CC(=O)Nc1ccc(S(=O)(=O)N2CCC(N)CC2)cc1 | 212 to 214
14 | OCc1nc2cc(C(F)(F)F)ccc2s1 | 96 to 98
15 | COC(=O)CCCOc1ccc(N)c2ccccc12 | 69 to 71
16 | O=[N+]([O-])c1ccc(-c2cn3ccsc3n2)cc1 | 284 to 286
17 | COc1cc(C(=O)O)cc(NS(C)(=O)=O)c1OC | 214 to 216
18 | CC1(C)CC(=O)NC1=O | 103 to 105
19 | O=C(O)c1cccc2[nH]c(=O)oc12 | 329 to 331
20 | CC(C)(C)c1nnc(CCl)o1 | 42 to 44
21 | NC(=O)C(CC(=O)O)NC(=O)OCc1ccccc1 (configuration not stated) | 169 to 171
22 | N#Cc1ccnc(OC2CCC2)c1 | 39 to 41
23 | CS(=O)CCC(=O)O (configuration not stated) | 57 to 59
24 | Sc1nnc(-c2cccs2)n1-c1ccccc1 | 269 to 271
25 | O=C(c1ccc(F)cc1)c1cnccn1 | 55 to 57

Row | Compound | melting point [°C]
26 | O=C(O)C1CC1[N+](=O)[O-] (configuration not stated) | 123 to 125
27 | Oc1cc2c(nn1)CCNC2 | 211 to 213
28 | N#CCc1c(C#N)c(N)nc(N2CCCCC2)c1C#N | 142 to 144
29 | NCc1ccc(N2CCOC2=O)cc1 | 94 to 96
30 | Nc1cc(C2CC2)nn1-c1ccccc1 | 134 to 136
31 | Cc1ccccc1-n1c(Cl)nc2ccccc2c1=O | 298 to 300
32 | COc1ccc([N+](=O)[O-])cc1C(C)N (configuration not stated) | 62 to 64
33 | CN1CCc2ncnc(Cl)c2C1 | 67 to 69
34 | O=C(Nc1cc(Cl)ccc1Cl)OCC(F)(F)F | 110 to 112
35 | O=C(O)c1cccc(COc2cccc(F)c2)c1 | 108 to 110
36 | O=C(O)C=Cc1ccccc1OC(F)F | 164 to 166
37 | Cc1nc(NC2CC2)sc1C(=O)O | 208 to 210
38 | O=C(O)CCNS(=O)(=O)c1cccs1 | 143 to 145
39 | COc1cc(C(C)=O)ccc1OC(F)F | 65 to 67
40 | COc1ccccc1CNc1ccc2[nH]c(=O)[nH]c2c1 | 216 to 218
41 | Fc1ccc(CBr)c(Br)c1 | 51 to 53
42 | O=C(CCl)NCc1ccc(F)cc1C(F)(F)F | 95 to 97
43 | Fc1ccc2c(C3=CCNCC3)c[nH]c2c1 | 173 to 175
44 | CC(C)CC(N)c1nnn[nH]1 (configuration not stated) | 272 to 274
45 | NNc1ccc(C(F)(F)F)cn1 | 61 to 63
46 | CS(=O)(=O)N1CCc2ccccc2C1CC(=O)O (configuration not stated) | 126 to 128
47 | CC(=O)C(N)=S | 59 to 61
48 | O=[N+]([O-])c1cc(Cl)c(S(=O)(=O)Cl)c(Cl)c1 | 92 to 94
49 | COc1ccc(C#N)cc1CBr | 123 to 125
50 | Nc1cc(C(=O)O)ccc1Br | 226 to 230

Row | Compound | melting point [°C]
51 | NS(=O)(=O)c1cnccn1 | 166 to 168
52 | O=C(O)/C=C/c1cnn(Cc2ccccc2)c1 | 118 to 120
53 | Nc1cc(-c2cccs2)no1 | 91 to 93
54 | CCN(CC)S(=O)(=O)c1ccc(O)c(N)c1 | 74 to 76
55 | COC(=O)c1sc(-c2ccccc2Cl)cc1N | 109 to 111
56 | O=S(=O)(Cl)c1cnc(Cl)nc1Cl | 96 to 98
57 | Cc1nc2ccccc2n1Cc1cc(N)ccc1Cl | 191 to 193
58 | O=C(O)c1cc(-c2ccccc2F)on1 | 182 to 184
59 | OCC1CNC(c2ccccc2)=NO1 (configuration not stated) | 149 to 151
60 | COc1ccc(NC(=O)Nc2ccc(OC)nc2)cn1 | 215 to 217
61 | CS(=O)(=O)N1CCCCC1C(=O)O (configuration not stated) | 74 to 76
62 | CS(=O)(=O)NCC#N | 69 to 71
63 | CC(=O)N1CCCCC1C(=O)O (configuration not stated) | 137 to 139
64 | COC(=O)c1cccc(Oc2ccnc(Cl)n2)c1 | 117 to 119
65 | N#Cc1oc2ccccc2c1O | 138 to 140
66 | CC1CCN(S(=O)(=O)c2ccc(C(=O)O)s2)CC1 | 207 to 209
67 | O=C(O)Cc1csc(N2CCCC2=O)n1 | 118 to 120
68 | NC(=O)c1ccc(Br)c(F)c1 | 167 to 169
69 | COc1ccc2cc(C(=O)O)[nH]c2c1 | 190 to 192
70 | Cc1cc(C(=O)CCl)c(C)n1Cc1cccs1 | 83 to 85
71 | CS(=O)(=O)c1ccc(OCCCBr)cc1 | 93 to 95
72 | CN(C)S(=O)(=O)c1ccc2[nH]c(=O)oc2c1 | 202 to 204
73 | O=[N+]([O-])c1c(CCl)nc2ccccn12 | 152 to 154

Next, values leading:

Row | melting point [°C] | Compound
74 | 132 to 134 | O=C(O)CCNC(=O)CCC(=O)O
75 | 140 to 142 | O=C(O)CCc1nc2sc3c(c2c(=O)[nH]1)CCCC3
76 | 142 to 144 | CCCc1nc(C(=O)O)nn1-c1ccccc1Cl
77 | 150 to 152 | CN(CC(=O)O)S(=O)(=O)C=Cc1ccccc1
78 | 179 to 181 | O=S(=O)(c1ccc(S)nc1)N1CCCC1
79 | 273 to 275 | Nc1nnc(-c2ccc3c(c2)CCC3)o1
80 | 284 to 286 | Cc1ccc(Oc2ccc3[nH]c(C)c(C)c(=O)c3c2)cc1
81 | 144 to 146 | COCCNc1ccc(S(C)(=O)=O)cc1N
82 | 121 to 125 | CCN(CC)S(=O)(=O)c1ccc(Cl)c(C(=O)O)c1
83 | 174 to 176 | N#Cc1c(Cl)nc2sccn12
84 | 113 to 115 | Cc1cccc(C(=O)N2CCSCC2)c1N
85 | 144 to 146 | Cn1ccc(C(=O)O)c1
86 | 52 to 54 | CN(C)C(=O)c1cccc(Br)c1
87 | 179 to 181 | N#CCCn1cc(C(=O)O)c(-c2cccc3ccccc23)n1
88 | 149 to 151 | CNC(=O)c1cccc(NC(=O)C(C)Cl)c1 (configuration not stated)
89 | 211 to 213 | Cc1cc(C(=O)O)nn1-c1ccc(Br)cc1
90 | 114 to 116 | Nc1cc(-c2cc(F)cc(F)c2)no1
91 | 220 to 222 | NS(=O)(=O)c1cccc(N2C(=O)C=CC2=O)c1
92 | 134 to 136 | O=C(CSc1nnc(NCc2ccccc2)s1)NCC1CCCCC1
93 | 201 to 203 | COc1ccc(OC)c2[nH]c(C(=O)O)cc12
94 | 164 to 166 | NC(=NO)c1ccc2c(c1)OCO2
95 | 112 to 114 | COc1ccc(CNc2nccs2)c(OC)c1
96 | 109 to 111 | CN(Cc1ccccc1N)C(=O)c1cc2ccccc2o1

Row | melting point [°C] | Compound
97 | 179 to 181 | NC(CC(=O)N1CCCCC1)=NO
98 | 49 to 51 | CC(=O)c1cc(-c2ccccc2)ccc1O
99 | 179 to 181 | CCn1cnnc1-c1cccc(N)c1
100 | 159 to 161 | O=C(O)c1ccc2c(c1)S(=O)(=O)N(CC1CCCO1)C2=O (configuration not stated)
101 | 157 to 159 | CN(CC(=O)O)C(=O)Nc1cccc([N+](=O)[O-])c1
102 | 259 to 261 | O=C(O)c1ccnc2ncnn12
103 | 296 to 298 | N#Cc1ccc2[nH]c(=O)[nH]c2c1
104 | 197 to 199 | Cc1ccc(S(=O)(=O)N2CCCCC2)cc1C(=O)O
105 | 200 to 202 | O=c1c(Cl)c(Cl)cnn1-c1ccc(Cl)cc1Cl
106 | 223 to 225 | NC(=O)C1CCN(CCc2ccc(N)cc2)CC1
107 | 128 to 130 | OCc1ccc(-n2ccnc2)nc1
108 | 210 to 212 | O=C(O)c1ccc(-c2ccccc2Cl)o1
109 | 94 to 96 | CCOc1cc(C=O)cc(Br)c1OC(F)F
110 | 89 to 91 | Cc1nc[nH]n1
111 | 186 to 188 | Nc1nc(-c2cccc([N+](=O)[O-])c2)cs1
112 | 65 to 67 | Fc1cccc(-c2nnc(CCl)o2)c1
113 | 97 to 99 | CC(=O)NCC1CCNCC1
114 | 76 to 80 | Cc1cc(C(=O)CCl)c(C)n1-c1ccc(OC(F)(F)F)cc1
115 | 100 to 102 | O=C(c1ccc(F)cc1)c1ccc(C(F)(F)F)cc1
116 | 178 to 180 | Cc1cc(C(=O)O)ccc1NC(=O)OC(C)(C)C
117 | 56 to 58 | O=C(O)C=C1CCSCC1
118 | 114 to 116 | C/C(=N\NC(N)=S)c1ccccc1
119 | 119 to 121 | Cc1cccc(Cl)c1S(N)(=O)=O

Row | melting point [°C] | Compound
120 | 68 to 70 | Cc1nn(C(C)(C)C)c(C)c1S(=O)(=O)Cl
121 | 53 to 55 | O=C(CCl)NCc1cccc(F)c1
122 | 207 to 209 | COc1cc(NC(=O)C2CC2C)c(C(=O)O)cc1OC (configuration not stated)
123 | 93 to 95 | CCOC(=O)c1ncoc1-c1ccco1
124 | 256 to 258 | COc1ccc2c(C)cc3nnc(S)n3c2c1
125 | 87 to 89 | Cc1cc(C(=O)CCl)c(C)n1-c1ccon1
126 | 120 to 122 | NC(=NO)c1ccccc1OCc1ccccc1
127 | 192 to 194 | O=C(O)CNC(=O)Nc1ccc(Br)cc1
128 | 215 to 217 | NS(=O)(=O)c1nc2ccccc2[nH]1
129 | 80 to 82 | CC(=O)c1ccc(S(=O)(=O)N(C)CCCC(=O)O)cc1
130 | 239 to 241 | Cc1[nH]c(=O)[nH]c1C
131 | 150 to 152 | O/N=C(\Cc1nccn1C(F)F)c1ccccc1
132 | 132 to 134 | Cc1ccc(NC(=O)NN)c(Cl)c1
133 | 165 to 167 | Nc1ccc(CN2CCC(CO)CC2)cc1
134 | 155 to 157 | CS(=O)(=O)N1CCc2c(N)cccc2C1
135 | 127 to 129 | Cn1cc(/C=C/[N+](=O)[O-])cn1
136 | 143 to 145 | Clc1ccc(Cl)c(-c2cc[nH]n2)c1
137 | 69 to 71 | Cc1cc(C)c(C)c(Oc2c(C#N)c(C)nn2C)c1
138 | 181 to 185 | CC(C)NC(=O)CSc1ccccc1C(=O)O
139 | 94 to 96 | CS(=O)(=O)CCn1cc(Br)cn1
140 | 89 to 91 | CCCOc1ccc2[nH]cc(CO)c2c1
141 | 106 to 108 | O=C(O)C1(c2ccccc2F)CCCC1
142 | 173 to 175 | CCOC(=O)c1ccc(-n2c(C)nc3ccccc3c2=O)cc1
